Where two headings read alike, the source gives them in different places.
Molecular target: T1, Human Cav3.1 calcium channel (Homo sapiens, UniProt O43497)
T1 construct: expressed in transfected cells; host or cells: HEK-293 natClytin/TASK1+Cav3.1 cell line
Assay: Human Cav3.1 calcium channel patch clamp assay (SyncroPatch 384PE; single point and IC50, voltage dependent block)
Type: cell-based
Conditions: for % Inhibition (Single Point Data): Testing Conc 1.25, patch clamp
Method in brief: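 Automated whole-cell patch clamp at room temperature, cells held at −120 mV; 100 ms step to −20 mV (resting block), then 1600 ms at −65 mV and a second −20 mV step (voltage-dependent block), every 15 s. Peak currents averaged over last 3 sweeps; % inhibition relative to nickel-sensitive current.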

[1] = HEK-293 natClytin/TASK1+Cav3.1 cell line
[2] = voltage dependent block (VDB), HEK-293 natClytin/TASK1+Cav3.1 cell line, read-out: Cav3.1 IC50

T1 sequence (O43497 whole entry): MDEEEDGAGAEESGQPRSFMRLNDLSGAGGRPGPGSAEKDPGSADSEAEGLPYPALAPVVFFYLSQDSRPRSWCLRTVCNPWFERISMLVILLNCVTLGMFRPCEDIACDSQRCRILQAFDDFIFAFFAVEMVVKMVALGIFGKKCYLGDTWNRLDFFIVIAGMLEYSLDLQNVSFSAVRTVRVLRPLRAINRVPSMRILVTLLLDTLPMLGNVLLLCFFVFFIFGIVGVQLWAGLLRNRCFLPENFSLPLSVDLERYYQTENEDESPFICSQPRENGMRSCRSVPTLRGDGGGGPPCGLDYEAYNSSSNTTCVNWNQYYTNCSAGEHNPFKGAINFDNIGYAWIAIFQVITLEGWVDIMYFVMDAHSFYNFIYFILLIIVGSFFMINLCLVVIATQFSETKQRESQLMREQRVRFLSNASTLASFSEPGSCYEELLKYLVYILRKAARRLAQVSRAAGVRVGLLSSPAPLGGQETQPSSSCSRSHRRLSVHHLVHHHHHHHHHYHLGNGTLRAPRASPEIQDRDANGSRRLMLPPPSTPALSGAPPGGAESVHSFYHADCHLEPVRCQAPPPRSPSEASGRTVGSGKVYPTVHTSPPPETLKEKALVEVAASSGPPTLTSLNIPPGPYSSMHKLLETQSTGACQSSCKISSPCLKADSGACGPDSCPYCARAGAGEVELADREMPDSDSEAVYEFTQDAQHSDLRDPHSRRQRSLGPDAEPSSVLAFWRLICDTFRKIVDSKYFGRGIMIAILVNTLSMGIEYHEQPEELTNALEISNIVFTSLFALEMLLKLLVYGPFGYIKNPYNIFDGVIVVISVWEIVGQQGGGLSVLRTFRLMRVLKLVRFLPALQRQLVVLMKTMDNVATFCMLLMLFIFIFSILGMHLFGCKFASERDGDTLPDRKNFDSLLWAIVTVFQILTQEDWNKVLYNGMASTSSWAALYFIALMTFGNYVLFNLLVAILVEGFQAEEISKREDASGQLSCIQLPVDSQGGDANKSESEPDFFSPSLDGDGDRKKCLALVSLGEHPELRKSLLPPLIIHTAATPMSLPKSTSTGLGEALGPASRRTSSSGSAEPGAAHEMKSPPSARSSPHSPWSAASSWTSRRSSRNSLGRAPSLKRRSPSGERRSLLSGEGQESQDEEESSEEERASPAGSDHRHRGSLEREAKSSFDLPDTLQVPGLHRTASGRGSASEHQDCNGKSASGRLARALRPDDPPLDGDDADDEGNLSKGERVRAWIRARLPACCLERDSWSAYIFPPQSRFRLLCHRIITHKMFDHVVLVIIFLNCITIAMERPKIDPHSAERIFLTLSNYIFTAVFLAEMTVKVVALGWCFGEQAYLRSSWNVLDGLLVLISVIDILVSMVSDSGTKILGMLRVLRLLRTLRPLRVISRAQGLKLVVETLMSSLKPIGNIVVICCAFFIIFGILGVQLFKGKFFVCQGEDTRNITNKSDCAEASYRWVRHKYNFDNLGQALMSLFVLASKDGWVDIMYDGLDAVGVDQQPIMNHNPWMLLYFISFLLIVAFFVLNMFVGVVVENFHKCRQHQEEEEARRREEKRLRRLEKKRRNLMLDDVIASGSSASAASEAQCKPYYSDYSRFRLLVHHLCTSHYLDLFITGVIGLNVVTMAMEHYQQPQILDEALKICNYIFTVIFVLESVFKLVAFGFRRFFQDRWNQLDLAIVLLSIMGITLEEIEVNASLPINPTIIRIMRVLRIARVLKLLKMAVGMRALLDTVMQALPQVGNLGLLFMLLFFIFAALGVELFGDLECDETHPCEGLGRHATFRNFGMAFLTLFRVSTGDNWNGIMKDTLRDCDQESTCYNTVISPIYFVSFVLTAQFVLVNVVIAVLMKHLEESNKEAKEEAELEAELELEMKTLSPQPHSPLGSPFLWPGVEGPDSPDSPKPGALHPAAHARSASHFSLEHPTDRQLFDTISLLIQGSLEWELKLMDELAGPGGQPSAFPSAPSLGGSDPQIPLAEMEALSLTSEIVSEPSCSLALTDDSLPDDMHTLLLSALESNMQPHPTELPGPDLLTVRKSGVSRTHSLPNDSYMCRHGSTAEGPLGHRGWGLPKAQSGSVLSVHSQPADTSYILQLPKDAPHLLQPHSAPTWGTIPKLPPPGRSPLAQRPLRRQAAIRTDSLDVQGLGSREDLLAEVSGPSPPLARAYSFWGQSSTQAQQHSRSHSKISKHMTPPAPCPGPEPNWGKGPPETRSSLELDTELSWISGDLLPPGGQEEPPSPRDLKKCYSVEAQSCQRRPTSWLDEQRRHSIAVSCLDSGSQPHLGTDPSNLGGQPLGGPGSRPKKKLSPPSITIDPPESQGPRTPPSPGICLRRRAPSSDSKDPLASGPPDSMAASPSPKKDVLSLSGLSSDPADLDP

Row | SMILES | % Inhibition (Single Point Data) [1] [%] | IC50 [2] [nM] | IC50 [nM]
1 | CC(C)(C)NC(=O)CN1CC2CC1CN2CC(=O)Nc1cccc(Cl)c1 (stereo not shown) [Compound 131] | 83.36 | 2380 | 
2 | O[C@H]1CC[C@@H](OCCN2C3CC2CN(Cc2nc4c(Cl)cc(F)cc4[nH]2)C3)CC1 [Compound 132] | 6.2687 | 5900 | 
3 | O[C@H]1CC[C@H](OCCN2C3CC2CN(Cc2nc4c(Cl)cc(F)cc4[nH]2)C3)CC1 [Compound 133] | 72.888 | 553 | 
4 | CC(C)(C)C(=O)NCCN1C2CC1CN(Cc1nc3c(Cl)cc(F)cc3[nH]1)C2 [Compound 134] | 94.728 |  | 
5 | O=C(NCCN1C2CC1CN(Cc1nc3c(Cl)cc(F)cc3[nH]1)C2)C1(C(F)(F)F)CC1 [Compound 135] | 101.33 | 156 | 
6 | COc1ccc(Cl)c2nc(CN3CC4CC(C3)N4CC(=O)NC(C)(C)C(F)(F)F)[nH]c12 [Compound 136] | 100.03 |  | 
7 | CC1(C(=O)NCCN2C3CC2CN(Cc2nc4c(Cl)cc(F)cc4[nH]2)C3)CCC1 [Compound 137] | 96.095 |  | < 78.2
8 | O=C(NCCN1C2CC1CN(Cc1nc3c(Cl)cc(F)cc3[nH]1)C2)C1(C(F)(F)F)CCC1 [Compound 138] | 98.457 |  | 
9 | CC(C)(C)OC(=O)CN1C2CC1CN(Cc1nc3c(Cl)cc(F)cc3[nH]1)C2 [Compound 139] | 92.564 | 153 | 
10 | CC1(OC(=O)CN2C3CC2CN(Cc2nc4c(Cl)cc(F)cc4[nH]2)C3)CC1 [Compound 140] | 79.539 | 283 | 
11 | O=C(CN1C2CC1CN(Cc1nc3c(Cl)cc(F)cc3[nH]1)C2)OC1CCCC1 [Compound 141] | 100.15 | 162 | 
12 | CC1(S(=O)(=O)NCCN2C3CC2CN(Cc2nc4c(Cl)cc(F)cc4[nH]2)C3)CC1 [Compound 142] | 84.115 | 223 | 
13 | CC1(C(=O)OCCN2C3CC2CN(Cc2nc4c(Cl)cc(F)cc4[nH]2)C3)CC1 [Compound 143] | 78.298 | 174 | 
14 | Cc1ccc(F)c2[nH]c(CN3CC4CC(C3)N4CC(=O)NC(C)(C)C(F)(F)F)nc12 [Compound 144] | 98.286 |  | 74.5
15 | CN(CCN1C2CC1CN(Cc1nc3c(Cl)cc(F)cc3[nH]1)C2)C(=O)C1(C)CC1 [Compound 145] | 83.5 |  | 
16 | Fc1cc(Cl)c2nc(CN3CC4CC(C3)N4CCOC3CCOCC3)[nH]c2c1 [Compound 146] | 41.657 | 1280 | 
17 | OC(CN1C2CC1CN(Cc1nc3c(Cl)cc(F)cc3[nH]1)C2)C1CCCCC1 (stereo not shown) [Compound 147] | 99.075 |  | 
18 | CC(C)(C)NC(=O)CN1C2COCC1CN(Cc1nc3c(Cl)cc(F)cc3[nH]1)C2 [Compound 148] | 11.572 |  | 
19 | CC(C)(NC(=O)CN1CC2CC1CN2Cc1nc2c(Cl)ccc(F)c2[nH]1)C(F)(F)F (stereo not shown) [Compound 149] | 99.801 | 407 | 
20 | CC1(C)CCC(=O)N1CCN1C2CC1CN(Cc1nc3c(Cl)cc(F)cc3[nH]1)C2 [Compound 150] | 66.439 | 652 | 
21 | OC1(CN2C3CC2CN(Cc2nc4c(Cl)cc(F)cc4[nH]2)C3)CCC(F)(F)CC1 [Compound 151] | 95.252 |  | 
22 | Fc1cc(Cl)c2nc(CN3CC4CC(C3)N4CC3(F)CCC(F)(F)CC3)[nH]c2c1 [Compound 152] | 70.533 |  | < 78.2
23 | CC(C)(C)NC(=O)CN1CC2COCC(C1)N2Cc1nc2c(Cl)cc(F)cc2[nH]1 [Compound 153] | 82.059 | 386 | 
24 | Fc1ccc(Cl)c2nc(CN3CCN(CC(F)(F)C4CCCCC4)CC3)[nH]c12 [Compound 154] | 75.83 | 525 | 
25 | Fc1ccc(Cl)c2nc(CN3CCN(CC4(F)CCC(F)(F)CC4)CC3)[nH]c12 [Compound 155] | 80.753 | 370 | 
26 | OC(CN1CCN(Cc2nc3c(Cl)ccc(F)c3[nH]2)CC1)C1CCCCC1 (stereo not shown) [Compound 156] | 86.133 |  | 
27 | Cc1cccc2[nH]c(CN3CC4CC(C3)N4CCC3CCC(F)(F)CC3)nc12 [Compound 157] | 79.835 | 297 | 

Row | SMILES | % Inhibition (Single Point Data) [1] [%] | IC50 [2] [nM] | IC50 [nM]
28 | COc1cc(F)cc2[nH]c(CN3CC4CC(C3)N4CCC3CCC(F)(F)CC3)nc12 [Compound 158] | 92.557 | 148 | 
29 | OC1(CN2CCN(Cc3nc4c(Cl)ccc(F)c4[nH]3)CC2)CCC(F)(F)CC1 [Compound 159] | 76.669 | 250 | 
30 | Fc1cc(Cl)c2nc(CN3CCN(CC(F)(F)C4CCCC4)CC3)[nH]c2c1 [Compound 160] | 73.495 | 652 | 
31 | Fc1ccc(Cl)c2nc(CN3CCN(CC(F)C4CCCCC4)CC3)[nH]c12 (stereo not shown) [Compound 161] | 95.402 | < 78.2 | 
32 | Fc1cc(Cl)c2nc(CN3CCN(CC(F)(F)C4CCCCC4)CC3)[nH]c2c1 [Compound 162] | 73.357 | 416 | 
33 | Fc1ccc(Cl)c2nc(CN3CCN(CC(F)(F)C4CCCC4)CC3)[nH]c12 [Compound 163] | 54.884 | 671 | 
34 | COc1cc(F)cc2[nH]c(CN3CC4CC(C3)N4CC(=O)NC(C)(C)C)nc12 [Compound 164] | 84.695 |  | 
35 | CC(C)(C)NC(=O)CN1C2CC1CN(Cc1nc3c(F)ccc(F)c3[nH]1)C2 [Compound 165] | 87.314 |  | 
36 | CC(C)(NC(=O)CN1C2CC1CN(Cc1nc3c(F)ccc(F)c3[nH]1)C2)C(F)(F)F [Compound 166] | 87.157 | 253 | 
37 | Fc1cc(Cl)c2nc(CN3CC4CC(C3)N4CC(F)(F)C3CCCCC3)[nH]c2c1 [Compound 167] | 79.996 | 381 | 
38 | O=S(=O)(CCN1C2CC1CN(Cc1nc3c(Cl)ccc(F)c3[nH]1)C2)c1ccccc1 [Compound 168] | 66.949 | 711 | 
39 | Fc1cc(Cl)c2nc(CN3CC4CC(C3)N4CC(F)C3CCCCC3)[nH]c2c1 (stereo not shown) [Compound 169] | 84.629 | 297 | 
40 | O=C(CN1CC2CC(C1)N2CC(=O)NC1(C(F)(F)F)CC1)Nc1cc(F)cc(Cl)c1 [Compound 170] | 96.908 |  | 
41 | O=C(CN1CC2CC(C1)N2CCS(=O)(=O)c1ccccc1)Nc1cc(F)cc(Cl)c1 [Compound 171] | 34.047 | 1420 | 
42 | CC(C)(CCN1C2CC1CN(Cc1nc3c(Cl)cc(F)cc3[nH]1)C2)C(F)(F)F [Compound 172] | 94.964 |  | 
43 | CC(C)(C)NC(=O)CN1C2CC1CN(Cc1nc3c(OC(F)F)ccc(F)c3[nH]1)C2 [Compound 173] | 94.854 |  | < 78.2
44 | CC1(NC(=O)CN2C3CC2CN(Cc2nc4c(Cl)ccc(F)c4[nH]2)C3)COC1 [Compound 174] | 75.268 |  | 
45 | COc1ccc(F)c2[nH]c(CN3CC4CC(C3)N4CC(=O)NC(C)(C)C)nc12 [Compound 175] | 89.419 | 147 | 
46 | Fc1ccc(Cl)c2nc(CN3CC4CC(C3)N4CC(F)(F)C3CCCCC3)[nH]c12 [Compound 176] | 83.015 | 128 | 
47 | Cc1ccc(C#N)c2nc(CN3CC4CC(C3)N4CC(=O)NC(C)(C)C)[nH]c12 [Compound 177] | 87.595 |  | 
48 | N#CC1(CN2C3CC2CN(Cc2nc4c(Cl)ccc(F)c4[nH]2)C3)CCCCC1 [Compound 178] | 43.012 | 1390 | 
49 | N#CC1(CN2C3CC2CN(Cc2nc4c(Cl)ccc(F)c4[nH]2)C3)CCC(F)(F)CC1 [Compound 179] | 32.612 | 1970 | 
50 | O=C(CN1C2CC1CN(Cc1nc3c(Cl)ccc(F)c3[nH]1)C2)NC1(C(F)(F)F)COC1 [Compound 180] | 82.621 |  | 
51 | CC(C)(NC(=O)CN1C2CC1CN(Cc1nc3c(Cl)ccc(F)c3[nH]1)C2)C(F)(F)F [Compound 181] | 102.49 |  | 42.3
52 | O=C(CN1C2CC1CN(Cc1nc3c(Cl)cc(F)cc3[nH]1)C2)NC1(C(F)(F)F)COC1 [Compound 182] | 92.993 |  | 64.8
53 | COc1ccc(F)c2[nH]c(CN3CC4CC(C3)N4CC(=O)NC(C)(C)C(F)(F)F)nc12 [Compound 183] | 95.323 |  | 87.4

From patent publication US20250213558A1, “T-TYPE CALCIUM CHANNEL MODULATORS COMPRISING A PIPERAZINE OR 1,4-DIAZEPANE CORE AND METHODS OF USE THEREOF” (Praxis Precision Medicines, Inc., priority 2022, published 2025)
